Read-outs that look alike come from different tables or passages of the source.
How the values were obtained:
[1] = Stability of analytes in rat plasma under storage conditions; format: physicochemical; conditions: n = 6; for Stability RE, 3 freeze-thaw cycles / Stability RE, 30 days at −20 °C: rat plasma; for Stability RE, processed samples' stability: room temperature 24 h
Experimental: The stabilities of analytes in plasma were assessed by analyzing the QC samples at three concentration levels under the following storage conditions: after three freeze (−20 °C)-thaw (room temperature) cycles; stored at −20 °C for 30 days, and comparing the results with those of freshly prepared QC samples. Stabilities of the processed samples at room temperature for 24 h were also assessed.

[2] = PK study of the 12 alkaloids in rat plasma after oral administration of ZJ and FZJ extract (LC–MS/MS); format: in vivo; conditions: for AUC(0-t) / AUC(0-inf) / Cmax / MRT last / MRT inf / half-life / Tmax / Tsec (time of the secondary peak in C–T curve) / Csec (drug concentration of the secondary peak in C–T curve): rat plasma; for AUC(0-t) / AUC(0-inf) / Cmax / MRT last / MRT inf / half-life / Csec (drug concentration of the secondary peak in C–T curve): mean ± SD, n = 6; for AUC(0-t): read-out: AUC0→t; for AUC(0-inf): read-out: AUC0→∞; for Cmax: read-out: Cmax; for MRT last: read-out: MRT0→t (converted); for MRT inf: read-out: MRT0→∞ (converted); for half-life: read-out: t1/2; for Tmax: read-out: Tmax (converted)
Experimental: The time schedule included 15 time-points and six rats were sampled at each time-point. All the rats were orally administered with ZJ extract (suspended in water) at a dose of 3.38 g/kg body weight (dosages of the 12 alkaloids were shown in Table S4), equivalent to crude drug dose of 12 g/kg body weight. Blood samples were collected from the suborbital vein of the rats at 10, 20, 30, 60, 90, 120, 180, 240, 300, 330, 360, 480, 720, 1440, 2160 min after administration, and centrifuged immediately at 5000 rpm for 10 min. The plasma samples were stored at −20 °C until analysis.
Similarly, the time schedule of other rats included 15 time-points and six rats were orally administered with FZJ extract at a dose of 3.76 g/kg body weight (also equivalent to crude drug dose of 12 g/kg body weight, Table S4). Blood samples were collected and treated as mentioned above in the PK study of ZJ extract.
PK parameters of the 12 alkaloids including AUC0→t, AUC0→∞, mean retention time (MRT0→t, MRT0→∞), and elimination half-life (t1/2) were calculated with non-compartmental method by DAS 2.0 software (Mathematical Pharmacology Professional Committee of China, Shanghai, China). Maximum plasma drug concentration (Cmax) and time to reach the maximum plasma drug concentration (Tmax) were observed directly from the detected C–T data. The results were expressed as arithmetic mean ± standard deviation (SD).

[3] = Dose modified systemic exposure (AUC0→∞/D, Cmax/D)
Experimental: Because the alkaloids content in ZJ and FZJ were no longer linear with the proportion of CR and EF after extraction process, AUC0→∞/D (ratio of AUC0→∞ and dose) and Cmax/D (ratio of Cmax and dose) were calculated to estimate the dose modified systemic exposure levels of the 12 alkaloids (Table 3). […] Physicochemical properties of these alkaloids had been calculated in silico to predict their human colon adenocarcinoma cell (Caco-2) permeability according to the three-property based rule (3PRule). Polar surface area (PSA), logarithm of the n-octanol/water distribution coefficient (LogD), molecular weight (MW), hydrogen bond donors (HBD), hydrogen bond acceptors (HBA), number of free rotatable bonds (NRB) and molar solubility (S) of the alkaloids were retrieved from SciFinder® (American Chemical Society).

[4] = Two-compartment model fitting of C–T curves (DAS 2.0); format: in vivo, rat
Excerpt: Double peaks in C–T curves were observed repeatedly in the PK study of ZJ and related TCM prescriptions, but explanations to the phenomenon were still ambiguous. Generally, possible reasons for the double peak phenomenon could be summarized as follows: (a) enterohepatic circulation; […] (c) irregular pattern of gastric emptying. […] Moreover, Tmax of the alkaloids after administration of ZJ extract were deferred from that of FZJ administration. […] It probably play a major role in the double peak phenomenon, since the GI motility can affect the drug absorption.

| Compound | Stability RE, 3 freeze-thaw cycles ([1]; high QC concentration) [%] | Stability RE, 30 days at −20 °C ([1]; high QC concentration) [%] | Stability RE, 3 freeze-thaw cycles ([1]; low QC concentration) [%] | Stability RE, 30 days at −20 °C ([1]; low QC concentration) [%] | Stability RE, 3 freeze-thaw cycles ([1]; medium QC concentration) [%] | Stability RE, 30 days at −20 °C ([1]; medium QC concentration) [%] | Stability RE, processed samples' stability ([1]; high QC concentration) [%] | Stability RE, processed samples' stability ([1]; low QC concentration) [%] | Stability RE, processed samples' stability ([1]; medium QC concentration) [%] | AUC(0-t) ([2]; 3.38 g/kg, oral ZJ extract) [ng·h/mL] | AUC(0-inf) ([2]; 3.38 g/kg, oral ZJ extract) [ng·h/mL] | Cmax ([2]; 3.38 g/kg, oral ZJ extract) [ng/mL] | MRT last ([2]; 3.38 g/kg, oral ZJ extract) [h] | MRT inf ([2]; 3.38 g/kg, oral ZJ extract) [h] | half-life ([2]; 3.38 g/kg, oral ZJ extract) [h] | Tmax ([2]; 3.38 g/kg, oral ZJ extract) [h] | Tsec (time of the secondary peak in C–T curve) ([2]; oral ZJ extract) [min] | Csec (drug concentration of the secondary peak in C–T curve) ([2]; oral ZJ extract) [ng/mL] | AUC0→∞/D (ratio of AUC0→∞ and dose) ([3]; oral ZJ extract) | Cmax/D (ratio of Cmax and dose) ([3]; oral ZJ extract) | further results |
| --- | --- | --- | --- | --- | --- | --- | --- | --- | --- | --- | --- | --- | --- | --- | --- | --- | --- | --- | --- | --- | --- |
| O=c1c2c3c(ccc2cc2n1CCc1cc4c(cc1-2)OCO4)OCO3 [8-oxocoptisine] | −12.48 | −14.51 | 6.73 | 6.72 | 7.48 | 9.66 | 10.05 | −3.71 | 10.68 | 24.7 ± 3.9 | 27 ± 2.23 | 2.46 ± 1.17 | 10.1 | 13.5 | 8.93 ± 2.65 | 5 | 90 | 2.42 ± 0.89 | 44.44 | 3.98 | plasma concentrations at most time points ([2]; oral FZJ extract): below the LLOQ |
| COc1cc2c(cc1OC)-c1cc3ccc4c(c3c(=O)n1CC2)OCO4 [8-oxoepiberberine] | −8.93 | −2.71 | −14.18 | −13.41 | 0.37 | 0.36 | −7.73 | −7.14 | 9.35 | 14.3 ± 2.32 | 16.6 ± 3.22 | 2.38 ± 1.14 | 7.51 | 12.3 | 9.88 ± 4.57 | 1.5 | 300 | 1.85 ± 0.99 | 97.25 | 13.92 | plasma concentrations at most time points ([2]; oral FZJ extract): below the LLOQ |
| COc1cc2c(cc1OC)C(=O)NCC2 [corydaldine] | −2.29 | −2.68 | −1.98 | 15.65 | 3.89 | −11.86 | −10.59 | 13.85 | −6.31 | 45.1 ± 7.46 | 47.3 ± 7.36 | 10.3 ± 5.45 | 6.72 | 8.55 | 9.92 ± 2.06 | 1.5 | 300 | 9.03 ± 4.31 | 1688.21 | 369.29 | AIC (Akaike's information criterion method), two-compartment model fitting ([4]; oral FZJ extract): 3.947 ± 8.187; r^2 (correlation coefficient method), two-compartment model fitting ([4]; oral FZJ extract): 0.805 ± 0.066; AIC (Akaike's information criterion method), two-compartment model fitting ([4]; oral ZJ extract): 85.431 ± 9.718; r^2 (correlation coefficient method), two-compartment model fitting ([4]; oral ZJ extract): 0.243 ± 0.267; AUC(0-t) ([2]; 3.76 g/kg, oral FZJ extract): 2.86 ± 0.35 ng·h/mL; AUC(0-inf) ([2]; 3.76 g/kg, oral FZJ extract): 3.1 ± 0.46 ng·h/mL; Cmax ([2]; 3.76 g/kg, oral FZJ extract): 1.73 ± 0.58 ng/mL; MRT last ([2]; 3.76 g/kg, oral FZJ extract): 2.85 h; MRT inf ([2]; 3.76 g/kg, oral FZJ extract): 3.99 h; half-life ([2]; 3.76 g/kg, oral FZJ extract): 3.89 ± 1.29 h; Tmax ([2]; 3.76 g/kg, oral FZJ extract): 0.5 h; AUC0→∞/D (ratio of AUC0→∞ and dose) ([3]; oral FZJ extract): 310.00; Cmax/D (ratio of Cmax and dose) ([3]; oral FZJ extract): 173.00 |
| COc1cc2c(cc1OC)-c1cc3ccc4c(c3c[n+]1CC2)OCO4 [epiberberine] | −12.84 | −6.2 | −3.64 | 13.92 | −6.12 | −13.86 | −10.77 | 2.78 | −8.85 | 68.5 ± 15.9 | 69.6 ± 15.5 | 13.7 ± 7.05 | 10.8 | 11.6 | 6.11 ± 1.7 | 5 | 90 | 5.51 ± 2.17 | 0.62 | 0.12 | AUC(0-t) ([2]; 3.76 g/kg, oral FZJ extract): 10.1 ± 1.09 ng·h/mL; AUC(0-inf) ([2]; 3.76 g/kg, oral FZJ extract): 11.4 ± 1.27 ng·h/mL; Cmax ([2]; 3.76 g/kg, oral FZJ extract): 4.82 ± 1.97 ng/mL; MRT last ([2]; 3.76 g/kg, oral FZJ extract): 3.89 h; MRT inf ([2]; 3.76 g/kg, oral FZJ extract): 5.26 h; half-life ([2]; 3.76 g/kg, oral FZJ extract): 3.92 ± 1.69 h; Tmax ([2]; 3.76 g/kg, oral FZJ extract): 3 h; AUC0→∞/D (ratio of AUC0→∞ and dose) ([3]; oral FZJ extract): 1.91; Cmax/D (ratio of Cmax and dose) ([3]; oral FZJ extract): 0.81 |

Reference: PMC6155683, “Pharmacokinetics Studies of 12 Alkaloids in Rat Plasma after Oral Administration of Zuojin and Fan-Zuojin Formulas” (Molecules : A Journal of Synthetic Chemistry and Natural …, 2017)
